Structures can show the parent of a compound that is named as a salt. Where two headings read alike, the source gives them in different places.
Key:
C. elegans strain N2 = assay: C. elegans L4 larvae motility (thrashing) in M9 buffer; type: in vivo, Caenorhabditis elegans; conditions: for Effect on locomotion of worms vs negative control: 100 μM, 0-20 min
Protocol: The wild-type C. elegans strain N2 were obtained from the Caenorhabditis Genetics Center (University of Minnesota, MN, USA). […] We counted the number of worms with normal motility in M9 buffer with diluted drugs from the stock solutions (≤1% DMSO) at 0, 5, 10, 15 and 20 min. Five replicates were applied for each treatment. Motility between negative control (1% DMSO, final concentration) and drug treated worms were compared at each time point using student t-test.

Asu-ACR-16 [1] = biological target: T1, Asu-ACR-16 (Ascaris suum, UniProt F1KYJ9); assay: cell-based; type: cell-based; conditions: for Hill slope (nH): inhibitory concentration-response vs 100 μM ach; for Inhibitionmax (maximum inhibition): of currents elicited by 100 μM ach
T1 construct: Full-length Asu-acr-16 cDNA was amplified with the forward primer; expressed in transfected cells; host or cells: Xenopus laevis oocytes injected with Asu-acr-16 cRNA plus Asu-ric-3 cRNA
T1 sequence (F1KYJ9 1-504): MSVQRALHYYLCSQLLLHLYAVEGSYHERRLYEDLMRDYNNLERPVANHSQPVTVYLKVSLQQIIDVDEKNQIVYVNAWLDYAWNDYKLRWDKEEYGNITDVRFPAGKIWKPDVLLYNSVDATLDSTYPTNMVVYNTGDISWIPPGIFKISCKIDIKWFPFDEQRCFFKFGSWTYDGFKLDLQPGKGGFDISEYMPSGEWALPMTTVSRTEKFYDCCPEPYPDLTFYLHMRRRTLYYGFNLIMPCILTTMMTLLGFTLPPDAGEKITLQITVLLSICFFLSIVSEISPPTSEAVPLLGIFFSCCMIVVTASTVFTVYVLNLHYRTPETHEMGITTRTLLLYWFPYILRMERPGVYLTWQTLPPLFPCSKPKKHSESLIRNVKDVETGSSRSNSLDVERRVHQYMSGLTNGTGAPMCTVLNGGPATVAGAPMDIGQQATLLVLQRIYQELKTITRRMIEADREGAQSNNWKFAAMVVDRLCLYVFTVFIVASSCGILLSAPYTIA
Protocol: The nanoject II microinjector (Drummond Scientific, PA, USA) was used to injected the cRNA mixture into the animal pole of the de-folliculated X. laevis oocyte (Ecocyte Bioscience, Austin, TX, USA).
(§1) We used two-electrode voltage-clamp electrophysiology to record the inward current generated by the activated Asu-ACR-16 receptors expressed in X. laevis oocytes. 100 μM BAPTA-AM (final concentration) was added into the oocyte incubation solution 4 h prior to recording, to prevent the current produced by the endogenous calcium-activated chloride channels during recording. An Axoclamp 2B amplifier (Molecular Devices, CA, USA) was used for recording and oocytes were held at −60 mV. A PC computer with software Clampex 9.2 (Molecular Devices, CA, USA) was used to acquire the recording data. The microelectrodes used to measure current in oocytes were pulled on a Flaming/Brown horizontal electrode puller (Model P-97, Sutter Instruments), filled with 3M KCl and had resistances of 20–30 MΩ. The microelectrode tips were broken back carefully with Kimwipes (Wilmington, NC, USA) to reduce the resistance to 2–5 MΩ. […] Oocytes were placed into a tiny groove of the narrow oocyte recording chamber.
(§2) 100 μM acetylcholine was applied initially for 10 s as a control to check the viability of the oocytes and Asu-ACR-16 expression for all the recordings. Recording solution was then used to wash out the drug from the oocytes for 2–3 min before next application of drug perfusion.
(§3) The data from electrophysiological recordings were analyzed using Clampfit 9.2 (Molecular Devices, CA, and USA) and GraphPad Prism 5.0 (Graphpad Software Inc., CA, USA). […] Concentration-response relationships or concentration-inhibition (%) relationships were analyzed by fitting data points into the Hill equation, with at least four replicates of each experiment set.

Asu-ACR-16 [2] = biological target: T1, Asu-ACR-16; assay: cell-based; type: cell-based
Protocol: as §1, §2, §3

[3] = inhibition of currents elicited by 100 μM ach, oocytes held at −60 mV, mean ± S.E.M., read-out: IC50

| Compound | IC50 (Asu-ACR-16 [1]; [3]) | Hill slope (nH) (Asu-ACR-16 [1]; mean ± S.E.M.) | Inhibitionmax (maximum inhibition) (Asu-ACR-16 [1]; mean ± S.E.M.) | Hill slope (nH) of ach curve (Asu-ACR-16 [2]; in presence of 3 μM hit) | Effect on locomotion of worms vs negative control (C. elegans strain N2; L4 larvae) | further results |
| --- | --- | --- | --- | --- | --- | --- |
| c1ccc([C@H]2CN3CCSC3=N2)cc1 [levamisole, Levamisole hydrochloride] |  |  |  |  |  | Time without recovery of normal motility (C. elegans strain N2; L4 larvae, 30 μM): > 24 h |
| O=C(OCC1c2ccccc2-c2ccccc21)N1CCC(C(=O)O)(c2cccc3ccccc23)CC1 [fmoc-1, fmoc-4-(naphthalen-1-yl)-piperidine-4-carboxylic acid] | 10 ± 1.38 µM | 1.97 ± 0.37 | 82.49 ± 4.74% | 1.76 ± 0.21 | No visual effects |  |
| O=C(OCC1c2ccccc2-c2ccccc21)N1CCC(C(=O)O)(c2ccc3ccccc3c2)CC1 [fmoc-2, fmoc-4-(naphthalen-2-yl)-piperidine-4-carboxylic acid] | 16.7 ± 1.95 µM | 1.22 ± 0.17 | 80.34 ± 10.32% | 2.54 ± 0.18 | No visual effects |  |
| CC(C)(C)[C@]1(O)CCN2C[C@H]3c4ccccc4CCc4cccc(c43)[C@@H]2C1 [(+)-butaclamol Cl, (+)-butaclamol hydrochloride] |  | 1.34 ± 0.29 | 79.53 ± 12.41% | 12.75 ± 3.63 |  | IC50 (Asu-ACR-16 [1]): 9.85 ± 2.37 µM; Hill slope (nH) of ach curve (Asu-ACR-16 [2]; in presence of 1 μM hit): 9.64 ± 4.14 |
| CC(=O)OCC[N+](C)(C)C [ach, acetylcholine chloride] |  |  |  |  |  | Hill slope (nH) (Asu-ACR-16 [2]; ach alone (control, absence of hits)): 3.05 ± 0.07; Emax (Asu-ACR-16 [2]; read-out: Imax (maximum response)): 97.5 ± 1.19% |
| Cl.N#Cc1ccc2c(c1)CCN(CC[C@H]1CC[C@H](NC(=O)c3ccnc4ccccc34)CC1)C2.O [SB-277011-A, SB-277011-A hydrochloride hydrate] |  |  |  |  |  | Time to recovery of normal motility (C. elegans strain N2; L4 larvae, 30 μM): ≤ 20 min; Drop in number of normal worms with thrashing-like movement (C. elegans strain N2; L4 larvae, 30 μM, 5 min, p < 0.01): 60%; Number of worms with motility that appeared normal (C. elegans strain N2; L4 larvae, 30 μM, 10 min, p < 0.05): 50%; Number of worms with motility that appeared normal (C. elegans strain N2; L4 larvae, 30 μM, 15 min, p > 0.05): 85%; Number of worms with motility that appeared normal (C. elegans strain N2; L4 larvae, 30 μM, after 20 min): returned to near negative control values; Effect on motility of adult C. elegans compared with larvae (C. elegans strain N2; adult worms): less effective on adult C. elegans |
